# Assay results taken from ChEMBL document CHEMBL3885881, “DrugMatrix”.
# Species on record: Rattus norvegicus
# Assay: DrugMatrix - Regimen: Daily Repeat
# Format: toxicity, organism-based, Sprague-Dawley
# Design: regimen Daily Repeat, gender Male, age 6-8 weeks
# Details: in vivo, po, route oral GAVAGE, vehicle .5 % CMC; for ABSOLUTE BASOPHIL / ABSOLUTE EOSINOPHIL / ABSOLUTE LYMPHOCYTE / ABSOLUTE MONOCYTE / ABSOLUTE SEGMENTED NEUTROPHIL / BASOPHIL / EOSINOPHIL / ERYTHROCYTE COUNT / HEMATOCRIT / HEMOGLOBIN / LEUKOCYTE COUNT / LYMPHOCYTE / MEAN CORPUSCULAR HEMOGLOBIN / MEAN CORPUSCULAR HEMOGLOBIN CONCENTRATION / MEAN CORPUSCULAR VOLUME / MONOCYTE / NEUTROPHIL / NUCLEATED RED BLOOD CELLS / PLATELET COUNT: tissue Blood; for ALANINE AMINOTRANSFERASE / ALBUMIN / ALKALINE PHOSPHATASE / ASPARTATE AMINOTRANSFERASE / BLOOD UREA NITROGEN / CARBON DIOXIDE / CHLORIDE / CHOLESTEROL / CREATINE PHOSPHOKINASE / CREATININE / GLUCOSE / LACTATE DEHYDROGENASE / LIPASE / PHOSPHORUS / POTASSIUM / SODIUM / TOTAL BILIRUBIN / TOTAL PROTEIN / URIC ACID: tissue Plasma
# [1] = 75 mg/kg, 120 h, dose level High, time 5 day
# [2] = […], 72 h, dose 7.5 mg/Kg, dose level Low, time 3 day
# [3] = […], 120 h, dose 7.5 mg/Kg, dose level Low, time 5 day
structure (smiles),measurement,setting,value
Cc1ccc(/N=C/N(C)/C=N/c2ccc(C)cc2C)c(C)c1 [AMITRAZ],ABSOLUTE BASOPHIL,[1],0 CELLS/uL
same,ABSOLUTE EOSINOPHIL,[1],78.67 CELLS/uL
same,ABSOLUTE LYMPHOCYTE,[1],10570.33 CELLS/uL
same,ABSOLUTE MONOCYTE,[1],41.33 CELLS/uL
same,ABSOLUTE SEGMENTED NEUTROPHIL,[1],1409.67 CELLS/uL
same,BASOPHIL,[1],0%
same,EOSINOPHIL,[1],0.67%
same,ERYTHROCYTE COUNT,[1],6.55 x10E6/uL
same,HEMATOCRIT,[1],40.27%
same,HEMOGLOBIN,[1],16.2 G/DL
same,LEUKOCYTE COUNT,[1],12.1 x10E3/uL
same,LYMPHOCYTE,[1],87.33%
same,MEAN CORPUSCULAR HEMOGLOBIN,[1],24.73 pg
same,MEAN CORPUSCULAR HEMOGLOBIN CONCENTRATION,[1],40.2 G/DL
same,MEAN CORPUSCULAR VOLUME,[1],61.53 fL
same,MONOCYTE,[1],0.33%
same,NEUTROPHIL,[1],11.67%
same,NUCLEATED RED BLOOD CELLS,[1],0 /100WBC
same,PLATELET COUNT,[1],1330 x10E3/uL
same,ALANINE AMINOTRANSFERASE,[1],42.33 u/L
same,ALBUMIN,[1],4.3 G/DL
same,ALKALINE PHOSPHATASE,[1],203.33 u/L
same,ASPARTATE AMINOTRANSFERASE,[1],91.33 u/L
same,BLOOD UREA NITROGEN,[1],18.67 mg/dL
same,CARBON DIOXIDE,[1],21.67 mmol/L
same,CHLORIDE,[1],104.33 MEQ/L
same,CHOLESTEROL,[1],74 mg/dL
same,CREATINE PHOSPHOKINASE,[1],460.67 u/L
same,CREATININE,[1],0.26 mg/dL
same,GLUCOSE,[1],172 mg/dL
same,LACTATE DEHYDROGENASE,[1],250.67 u/L
same,LIPASE,[1],11.67 u/L
same,PHOSPHORUS,[1],15.2 mg/dL
same,POTASSIUM,[1],7.47 MEQ/L
same,SODIUM,[1],148.4 MEQ/L
same,TOTAL BILIRUBIN,[1],0.2 mg/dL
same,TOTAL PROTEIN,[1],6.17 G/DL
same,URIC ACID,[1],2.83 mg/dL
same,ABSOLUTE BASOPHIL,[2],0 CELLS/uL
same,ABSOLUTE EOSINOPHIL,[2],136 CELLS/uL
same,ABSOLUTE LYMPHOCYTE,[2],19510 CELLS/uL
same,ABSOLUTE MONOCYTE,[2],209.33 CELLS/uL
same,ABSOLUTE SEGMENTED NEUTROPHIL,[2],1444.67 CELLS/uL
same,BASOPHIL,[2],0%
same,EOSINOPHIL,[2],0.67%
same,ERYTHROCYTE COUNT,[2],5.3 x10E6/uL
same,HEMATOCRIT,[2],33.37%
same,HEMOGLOBIN,[2],13.33 G/DL
same,LEUKOCYTE COUNT,[2],21.3 x10E3/uL
same,LYMPHOCYTE,[2],91.33%
same,MEAN CORPUSCULAR HEMOGLOBIN,[2],25.17 pg
same,MEAN CORPUSCULAR HEMOGLOBIN CONCENTRATION,[2],39.97 G/DL
same,MEAN CORPUSCULAR VOLUME,[2],63.07 fL
same,MONOCYTE,[2],1%
same,NEUTROPHIL,[2],7%
same,NUCLEATED RED BLOOD CELLS,[2],0.33 /100WBC
same,PLATELET COUNT,[2],1400.67 x10E3/uL
same,ALANINE AMINOTRANSFERASE,[2],46.33 u/L
same,ALBUMIN,[2],4.13 G/DL
same,ALKALINE PHOSPHATASE,[2],272 u/L
same,ASPARTATE AMINOTRANSFERASE,[2],87.67 u/L
same,BLOOD UREA NITROGEN,[2],17.33 mg/dL
same,CARBON DIOXIDE,[2],25.33 mmol/L
same,CHLORIDE,[2],103.33 MEQ/L
same,CHOLESTEROL,[2],75.67 mg/dL
same,CREATINE PHOSPHOKINASE,[2],199.33 u/L
same,CREATININE,[2],0.22 mg/dL
same,GLUCOSE,[2],185.67 mg/dL
same,LACTATE DEHYDROGENASE,[2],127 u/L
same,LIPASE,[2],8.67 u/L
same,PHOSPHORUS,[2],11.97 mg/dL
same,POTASSIUM,[2],6.06 MEQ/L
same,SODIUM,[2],144.17 MEQ/L
same,TOTAL BILIRUBIN,[2],0.23 mg/dL
same,TOTAL PROTEIN,[2],5.7 G/DL
same,URIC ACID,[2],2.07 mg/dL
same,ABSOLUTE BASOPHIL,[3],0 CELLS/uL
same,ABSOLUTE EOSINOPHIL,[3],0 CELLS/uL
same,ABSOLUTE LYMPHOCYTE,[3],13348 CELLS/uL
same,ABSOLUTE MONOCYTE,[3],98 CELLS/uL
same,ABSOLUTE SEGMENTED NEUTROPHIL,[3],1187.33 CELLS/uL
same,BASOPHIL,[3],0%
same,EOSINOPHIL,[3],0%
same,ERYTHROCYTE COUNT,[3],5.41 x10E6/uL
same,HEMATOCRIT,[3],34.03%
same,HEMOGLOBIN,[3],13.6 G/DL
same,LEUKOCYTE COUNT,[3],14.63 x10E3/uL
same,LYMPHOCYTE,[3],91.33%
same,MEAN CORPUSCULAR HEMOGLOBIN,[3],25.17 pg
same,MEAN CORPUSCULAR HEMOGLOBIN CONCENTRATION,[3],39.93 G/DL
same,MEAN CORPUSCULAR VOLUME,[3],63.03 fL
same,MONOCYTE,[3],0.67%
same,NEUTROPHIL,[3],8%
same,NUCLEATED RED BLOOD CELLS,[3],0.33 /100WBC
same,PLATELET COUNT,[3],1467.33 x10E3/uL
same,ALANINE AMINOTRANSFERASE,[3],52.67 u/L
same,ALBUMIN,[3],4.13 G/DL
same,ALKALINE PHOSPHATASE,[3],370.67 u/L
same,ASPARTATE AMINOTRANSFERASE,[3],78.67 u/L
same,BLOOD UREA NITROGEN,[3],18 mg/dL
same,CARBON DIOXIDE,[3],30.67 mmol/L
same,CHLORIDE,[3],99.67 MEQ/L
same,CHOLESTEROL,[3],63 mg/dL
same,CREATINE PHOSPHOKINASE,[3],265.67 u/L
same,CREATININE,[3],0.18 mg/dL
same,GLUCOSE,[3],137.33 mg/dL
same,LACTATE DEHYDROGENASE,[3],130 u/L
same,LIPASE,[3],9 u/L
same,PHOSPHORUS,[3],11.77 mg/dL
same,POTASSIUM,[3],6.67 MEQ/L
same,SODIUM,[3],143.1 MEQ/L
same,TOTAL BILIRUBIN,[3],0.2 mg/dL
same,TOTAL PROTEIN,[3],5.9 G/DL
same,URIC ACID,[3],1.83 mg/dL
